Read-outs that look alike come from different tables or passages of the source.

A short description of series [1]: Real-time oxygen uptake in perfused microwell bioreactor. Type of series: cell-based, human. To be noted: human. As for the experimental part: (§1) PDMS microwell inserts were sterilized with 70% EtOH and 30 min exposure to UV light prior to cell seeding. Cells were trypsinized, counted and centrifuged at 300×g for 5 min at 4° C. The pellet was then mixed with […] CPOx-50-RuP oxygen-sensing beads (Colibri Photonics, Germany) and resuspended in 100 μl of ice-cold solution of collagen type I (BD Biosciences, USA) for a final seeding density of 4×10^6 cells/ml. The PDMS microwell insert was placed on ice and coated with ice-cold collagen solution for 5 min to remove air bubbles. Then 100 μl of collagen type I suspension containing cells and oxygen-sensing beads was layered on top the wells and incubated for 10 min on ice. The low temperature prevented premature collagen polymerization and the induction of cellular stress response pathways. Afterwards, excess cell and microbead suspension was gently wiped off the microwell insert using a sterile glass coverslip leading to a concentration of 100,000 cells and 20 oxygen-sensing beads per well. Variance in cell density between individual wells and between bioreactors was less than 10% measured by DNA content. The inoculated microwell insert was then incubated for 5 min at 37° C. to polymerize the collagen. Following polymerization, the insert was immersed in 5 ml of cell culture medium and incubated for 20 min at 37° C. prior to being sealed in the bioreactor housing. Bioreactors were then placed in a climate control chamber (Evotec, Germany) on an IX81 fluorescence microscope (Olympus, Japan). Bioreactors were continuously perfused with cell culture medium noted above supplemented with 10 mM HEPES and 1% DMSO at a flow rate of 2 μl/min. The automated and motorized microscope stage was equipped with a holder for three microreactors, allowing three experiments to run simultaneously.
(§2) Troglitazone (T2573), and rotenone (R8875) were purchased from Sigma-Aldrich (Schnelldorf, Germany) and diluted from H2O or DMSO stock concentration 1:1000 into HepG2/C3A culture medium. Exposure onset was calculated to within ±1 min based on volumetric flow rate, considering the length of the tubing and bioreactor volume.
(§3) Real-time oxygen measurements were performed optically using lifetime-based luminescencequenching as previously described (11). […] Excited by a sinusoidal amplitude-modulated 532 nm LED source, the microbeads emit a sinusoidal amplitudemodulated light at 605 nm that is shifted in phase due to oxygen quenching (FIG. 2D). To overcome the superposition of in-phase background fluorescence that alters the phase of the detected signal, a 53.5 kHz and 31.3 kHz two-frequency phase modulation was used. This allowed screening out background interference (26-28). Measurements were carried out by averaging 5 consecutive 3 second exposures, followed by 17 seconds intervals, for a total of 100 seconds. Measurements were taken every 15 minutes for as long as 28 days with no phototoxicity, signal drift, or relevant loss of signal intensity. The apparatus consists of the OPAL package (Colibri Photonics, Germany) that is comprised of a control module, 532 nm LED, and a photomultiplier (PMT) detector mounted on the ocular of an […] Olympus microscope (Olympus, Japan). A filter cube with 531/40 (Ex), 607/70 (Em) was inserted in the optical light path during measurements.

For series [2], the system named is HepG2/C3A cells. The description is as above. The class given is cell-based, human. The procedure: as §1, §2, §3
Series [3] concerns HepG2/C3A cells. Kind of series: Flux balance analysis of metabolic pathways and ATP production. The class given is cell-based, human. Conditions: 50 μM; for ATP production, % of untreated cells: calculated from flux balance; for Glutaminolysis (calculated metabolic flux) / Glycolysis (calculated metabolic flux) / Lipogenesis (calculated metabolic flux) / Respiration (calculated metabolic flux): troglitazone 6 hours, rotenone 3 hours. The procedure:
Glucose uptake, oxygen uptake and lactate production rates were measured by calculating the change in metabolite concentration between the bioreactor in- and outflow, as function of perfusion rate and cell number as described above. Metabolic rates were calculated assuming negligible contribution to oxygen uptake by fatty acid oxidation and enzymatic activity. Low level of lipids in the culture medium ensured that fatty acid uptake was 50-fold lower than glucose while glutamine contribution to the Krebs cycle was minor (results).
Based on these assumptions, oxidative phosphorylation flux was calculated by dividing oxygen uptake rate by six. 32 ATP molecules generated by complete oxidation of 1 molecule of glucose were estimated. Glycolysis flux was calculated by dividing lactate production rate by two, with maximal rate defined by glucose uptake rate minus the oxidative phosphorylation flux. ATP production in glycolysis was estimated to be 2 molecules per molecule of glucose. It was assumed that any glucose left over was directed toward lipogenesis, as the contribution of pentose phosphate pathway in nonproliferating cells is minor (31). Finally, it was assumed that excess lactate was produced by glutaminolysis, and confirmed the assumption using offline measurement of glutamine uptake (FIGS. 10A and 10B). ATP production in glutaminolysis was estimated to be 3 molecules per molecule of lactate generated.

Series [4] concerns HepG2/C3A cells. Kind of series: Seahorse glutamine oxidation assay. The class given is cell-based, human. To be noted: 50 μM, static culture. As for the experimental part: HepG2/C3A cells were plated in gelatin-coated XFp cell culture miniplates and cultured for 24 hours. Subsequently, cultures were treated with medium containing 50 μM troglitazone for 6 hours, 50 μM rotenone for 3 hours, or vehicle control prior to initiation of assay. Glutamine oxidation assay was conducted per manufacturer instructions. Briefly, cells were incubated in unbuffered XF Base Medium supplemented with 2 mM Glutamine, 1 mM sodium pyruvate, and 10 mM glucose (pH 7.4) for 1 hour at 37° C. in a non-CO2 incubator. Glutamine oxidation was profiled by successive injections of 3 μM BPTES, an allosteric inhibitor of glutaminase (GLS1), and a mixture of 4 μM etomoxir, a carnitine palmitoyl-transferase 1A (CPT1A) inhibitor and 2 μM UK5099 a mitochondrial pyruvate carrier inhibitor, blocking fatty acid oxidation and […], respectively. The decrease in baseline OCR due to BPTES treatment was defined as the rate of glutaminolysis. Data are presented normalized to 10^6 cells as determined by Hoechst DNA content assay.

The test system of series [5] is HepG2/C3A cells. Briefly: JC-1 mitochondrial membrane potential staining. Type of series: cell-based, human. Conditions: 50 μM. As for the experimental part: JC-1 cell permeable dye was purchased from Life Technologies (New York, N.Y.). HepG2/C3A cells were incubated with 50 μM of troglitazone or rotenone for varying durations. To evaluate mitochondrial membrane potential at each time point, cells were incubated with 5 μM JC-1 dye for 30 min, washed with PBS and imaged by confocal microscopy on a LSM700 (Zeiss, Germany). […] Consequently, mitochondrial depolarization is quantified by dividing red over green fluorescence intensity.

The test system of another series is HepG2/C3A spheroids. Kind of series: Offline glutamine uptake in bioreactor perfusate. The class given is cell-based, human. Conditions: 50 μM. The procedure:
Glutamine concentration was determined using glutamine and glutamate determination kit (Sigma-Aldrich). Bioreactors containing HepG2/C3A spheroids were set up as described in the main text and perfused at 2 μl/min. Perfusate samples were collected for 60 minutes for a total of 120 μl per sample. Glutamine was quantified according to manufacturer directions.

For series [6], the system named is primary human hepatocytes. To be noted: cited from earlier work.

For the molecule `Cc1c(C)c2c(c(C)c1O)CCC(C)(COc1ccc(CC3SC(=O)NC3=O)cc1)O2` (centres unmarked) [troglitazone], in series [1], the CC50 at 24 h was determined as 285 µM. Further, in the series on HepG2/C3A cells [2] (50 μM), the “reduction of oxygen uptake” value is reported as 10%. Moreover, in the series on HepG2/C3A cells [2] (350 μM, 24 hours exposure), the “oxygen uptake, % of normal respiration” value is recorded as 32%. For the same molecule, the “oxygen uptake, % of normal respiration” value with HepG2/C3A cells [2] (500 μM, 24 hours exposure) was 15%. The “oxygen uptake, % of normal respiration” value in the series with HepG2/C3A cells [2] (2000 μM, 24 hours exposure) was determined as 8%. Further, in the series on HepG2/C3A cells [3] (after 6 hours of exposure), the “decrease in oxidative phosphorylation flux” value is 23% and the “increase in glycolysis (flux)” value was 51%. For the same molecule, in the series with HepG2/C3A cells [3], the “ATP production, % of untreated cells” value was 97%; the “Glutaminolysis (calculated metabolic flux)” value was 0.02 nmol/min/10^6 cells; the “Glycolysis (calculated metabolic flux)” value was 2.25 nmol/min/10^6 cells; the “Lipogenesis (calculated metabolic flux)” value is on record as 0 nmol/min/10^6 cells. Also, the “Respiration (calculated metabolic flux)” value in the series on HepG2/C3A cells [3] was 0.25 nmol/min/10^6 cells. Besides, the “increase in glutamine oxidation rate (glutaminolysis)” value in the series with HepG2/C3A cells [4] is 26±30%. For the same molecule, the “increase in mitochondrial membrane potential (MMP)” value in the series on HepG2/C3A cells [5] (over 6 hours of exposure) was determined as 33±7%. Moreover, in the series with HepG2/C3A spheroids, the “increase in glutamine consumption (offline measurement)” value is reported as 5±2 folds. In series [6] (read-out: TC50 in primary hepatocytes), the CC50 is 100 µM.

As to `C=C(C)[C@H]1Cc2c(ccc3c2O[C@@H]2COc4cc(OC)c(OC)cc4[C@@H]2C3=O)O1` [rotenone], the CC50 at 12 h in series [1] (after 12 hours, read-out: TC50 (dose dependence of oxygen uptake)) stood at 12.5 µM. The “oxygen uptake, % of normal respiration” value in the series with HepG2/C3A cells [2] (1 μM, 12 hours exposure) turned out to be 35%. Further, in the series with HepG2/C3A cells [2] (50 μM), the “reduction of oxygen uptake” value is recorded as 80%. For the same molecule, in the series on HepG2/C3A cells [2] (50 μM, 12 hours exposure), the “oxygen uptake, % of normal respiration” value is 27%. The “oxygen uptake, % of normal respiration” value in the series on HepG2/C3A cells [2] (200 μM, 12 hours exposure) amounted to 15%. The “time to onset of mitochondrial damage” value in the series on HepG2/C3A cells [2] (0.2 mM) is no more than 6 min. The “time within which the majority of the effect on oxygen uptake occurred” value with HepG2/C3A cells [2] (1, 50, 200 μM) was no more than 60 min. The “time to onset of mitochondrial damage, in words” value in the series on HepG2/C3A cells [2] (dose-dependent) was “in minutes rather than hours”. For the same molecule, in the series on HepG2/C3A cells [3] (after 3 hours of exposure), the “decrease in oxidative phosphorylation flux” value is given as 90% and the “increase in glycolysis (flux)” value is listed as 34%. In the series with HepG2/C3A cells [3], the “ATP production, % of untreated cells” value is listed as “less than 36%”; the “Glutaminolysis (calculated metabolic flux)” value is given as 0.56 nmol/min/10^6 cells; the “Glycolysis (calculated metabolic flux)” value is on record as 0.97 nmol/min/10^6 cells; the “Lipogenesis (calculated metabolic flux)” value is 0 nmol/min/10^6 cells. For the same molecule, in the series with HepG2/C3A cells [3], the “Respiration (calculated metabolic flux)” value is reported as 0.03 nmol/min/10^6 cells. Besides, in the series with HepG2/C3A cells [4], the “increase in glutamine oxidation rate (glutaminolysis)” value is 382±115% and the increase in glutaminolysis was 4±1 folds. Further, the “increase in mitochondrial membrane potential (MMP)” value with HepG2/C3A cells [5] (within 3 hours of exposure) amounted to 40±6%. In addition, in the series with HepG2/C3A cells [5] (rotenone after 3 hours, troglitazone along 6 hours), the “effect on mitochondrial membrane potential (MMP), in words” value is “significant increase”. Besides, in the series with HepG2/C3A spheroids, the “glutamine uptake (outlet-inlet), in words” value was “increase in glutamine uptake” and the “increase in glutamine consumption (offline measurement)” value came out at 30±4 folds. Further, the CC50 in series [6] was 2 µM.

The record behind these values is US20190086391A1, “METHOD AND SYSTEM FOR CONTINUOUS BIOSENSING” (Yissum Research Development Company of the Hebrew …, priority 2016, published 2019).
